The target of the first test is sterol 24-C-methyltransferase (Leishmania major). The experiment in a line: Inhibition of Leishmania major recombinant 24-SMT.
Regarding `C[C@H](C(=O)NCCCCC(=O)O)[C@H]1CC[C@H]2C3CC=C4C[C@@H](O)CC[C@]4(C)[C@H]3CC[C@]12C` (stereo partly drawn) [3beta-ol-23,24-bisnor-5-en-22-(pentanoic acid) amide], the IC50 – broadly, the concentration that inhibits the measured activity by half – is > 100 µM. Regarding `COC(=O)CCNC[C@@H](C)[C@H]1CC[C@H]2C3CC=C4C[C@@H](OC(C)=O)CC[C@]4(C)[C@H]3CC[C@]12C` (stereo partly drawn) [3beta-acetoxy-23,24-bisnor-chol-5-en-22-(methyl propanoate) amine], the IC50 was > 100 µM. Turning to `CC(=O)O[C@H]1CC[C@@]2(C)C(=CCC3[C@@H]4CC[C@H]([C@H](C)C(=O)NCCC[C@H](NC(=O)OCc5ccccc5)C(=O)O)[C@@]4(C)CC[C@@H]32)C1` (stereo partly drawn) [3beta-acetoxy-23,24-bisnor-5-en-22-(5-(2-Z-amino)pentanoic acid) amide], the IC50 is > 100 µM. In the case of `CC(=O)O[C@H]1CC[C@@]2(C)C(=CCC3[C@@H]4CC[C@H]([C@H](C)C(=O)NC[C@H](NC(=O)OC(C)(C)C)C(=O)O)[C@@]4(C)CC[C@@H]32)C1` (stereo partly drawn) [3beta-acetoxy-23,24-bisnor-5-en-22-(3-(2-Boc-amino)propanoic acid) amide], the IC50 is > 100 µM.

In the case of `CC(=O)O[C@H]1CC[C@@]2(C)C(=CCC3[C@@H]4CC[C@H]([C@H](C)CNCCCCCCCC(=O)O)[C@@]4(C)CC[C@@H]32)C1` (stereo partly drawn) [3beta-acetoxy-23,24-bisnor-chol-5-en-22-(octanoic acid) amine], the half-inhibitory concentration (IC50) was > 100 µM. The same measure, in the same setting: to `CC(=O)O[C@H]1CC[C@@]2(C)C(=CCC3[C@@H]4CC[C@H]([C@H](C)CNCCCC(=O)O)[C@@]4(C)CC[C@@H]32)C1` (stereo partly drawn) [3beta-acetoxy-23,24-bisnor-chol-5-en-22-(butanoic acid) amine] belongs > 100 µM. For `C[C@H](CNCCCCCC(=O)O)[C@H]1CC[C@H]2C3CC=C4C[C@@H](O)CC[C@]4(C)[C@H]3CC[C@]12C` (stereo partly drawn) [3beta-ol-23,24-bisnor-5-en-22-(hexanoic acid) amine], the IC50 was > 100 µM. Consider `C[C@H](C(=O)NCC(=O)O)[C@H]1CC[C@H]2C3CC=C4C[C@@H](O)CC[C@]4(C)[C@H]3CC[C@]12C` (stereo partly drawn) [3beta-ol-23,24-bisnor-5-en-22-(ethanoic acid) amide], for which the half-maximal inhibitory concentration (IC50) was > 100 µM. For the compound `CC(=O)O[C@H]1CC[C@@]2(C)C(=CCC3[C@@H]4CC[C@H]([C@H](C)C(=O)NCC[C@H](NC(=O)OC(C)(C)C)C(=O)O)[C@@]4(C)CC[C@@H]32)C1` (stereo partly drawn) [3beta-acetoxy-23,24-bisnor-5-en-22-(4-(2-Boc-amino)butanoic acid) amide], the IC50 was > 100 µM. Same read-out and setting: the same measure for `CC(=O)O[C@H]1CC[C@@]2(C)C(=CCC3[C@@H]4CC[C@H]([C@H](C)CNC[C@H](NC(=O)OC(C)(C)C)C(=O)O)[C@@]4(C)CC[C@@H]32)C1` (stereo partly drawn) [3beta-acetoxy-23,24-bisnor-5-en-22-(3-(2-Boc-amino)propanoic acid) amine]: > 100 µM. Turning to `COC(=O)[C@@H](N)CCCCNC(=O)[C@@H](C)[C@H]1CC[C@H]2C3CC=C4C[C@@H](O)CC[C@]4(C)[C@H]3CC[C@]12C` (stereo partly drawn) [3beta-ol-23,24-bisnor-5-en-22-(6-(2-amino) hexanoate ester) amide], the IC50 is > 100 µM. In the case of `C[C@H](CNCC(=O)O)[C@H]1CC[C@H]2C3CC=C4C[C@@H](O)CC[C@]4(C)[C@H]3CC[C@]12C` (stereo partly drawn) [3beta-ol-23,24-bisnor-5-en-22-(ethanoic acid) amine], the IC50 was > 100 µM. For the compound `C[C@H](CNCCCCCCCC(=O)O)[C@H]1CC[C@H]2C3CC=C4C[C@@H](O)CC[C@]4(C)[C@H]3CC[C@]12C` (stereo partly drawn) [3beta-ol-23,24-bisnor-5-en-22-(octanoic acid) amine], the IC50 was > 100 µM. For `C[C@H](C(=O)NCCCC(=O)O)[C@H]1CC[C@H]2C3CC=C4C[C@@H](O)CC[C@]4(C)[C@H]3CC[C@]12C` (stereo partly drawn) [3beta-ol-23,24-bisnor-5-en-22-(butanoic acid) amide], the half-maximal inhibitory concentration (IC50) is > 100 µM. Regarding `C[C@H](CNCCCCC(=O)O)[C@H]1CC[C@H]2C3CC=C4C[C@@H](O)CC[C@]4(C)[C@H]3CC[C@]12C` (stereo partly drawn) [3beta-ol-23,24-bisnor-5-en-22-(pentanoic acid) amine], the IC50 was determined as 48.9 µM. Same read-out and setting: to `CC(=O)O[C@H]1CC[C@@]2(C)C(=CCC3[C@@H]4CC[C@H]([C@H](C)CNCCC[C@H](NC(=O)OCc5ccccc5)C(=O)O)[C@@]4(C)CC[C@@H]32)C1` (stereo partly drawn) [3beta-acetoxy-23,24-bisnor-5-en-22-(5-(2-Z-amino)pentanoic acid) amine] belongs > 100 µM; to `COC(=O)CCCCNC[C@@H](C)[C@H]1CC[C@H]2C3CC=C4C[C@@H](OC(C)=O)CC[C@]4(C)[C@H]3CC[C@]12C` (stereo partly drawn) [3beta-acetoxy-23,24-bisnor-chol-5-en-22-(methyl pentanoate) amine], > 100 µM; to `C[C@H](C(=O)NCCCCCC(=O)O)[C@H]1CC[C@H]2C3CC=C4C[C@@H](O)CC[C@]4(C)[C@H]3CC[C@]12C` (stereo partly drawn) [3beta-ol-23,24-bisnor-5-en-22-(hexanoic acid) amide], > 100 µM. Turning to `COC(=O)CCCCCCCNC[C@@H](C)[C@H]1CC[C@H]2C3CC=C4C[C@@H](OC(C)=O)CC[C@]4(C)[C@H]3CC[C@]12C` (stereo partly drawn) [3beta-acetoxy-23,24-bisnor-chol-5-en-22-(methyl octanoate) amine], the concentration for half-maximal inhibition (IC50) is > 100 µM. Still for that read-out and setting: to `COC(=O)CNC[C@@H](C)[C@H]1CC[C@H]2C3CC=C4C[C@@H](OC(C)=O)CC[C@]4(C)[C@H]3CC[C@]12C` (stereo partly drawn) [3beta-acetoxy-23,24-bisnor-chol-5-en-22-(methyl ethanoate) amine] belongs > 100 µM; to `CC(=O)O[C@H]1CC[C@@]2(C)C(=CCC3[C@@H]4CC[C@H]([C@H](C)CNCC[C@H](NC(=O)OC(C)(C)C)C(=O)O)[C@@]4(C)CC[C@@H]32)C1` (stereo partly drawn) [3beta-acetoxy-23,24-bisnor-5-en-22-(4-(2-Boc-amino)butanoic acid) amine], > 100 µM.

With `C[C@H](C(=O)NCCC(=O)O)[C@H]1CC[C@H]2C3CC=C4C[C@@H](O)CC[C@]4(C)[C@H]3CC[C@]12C` (stereo partly drawn) [3beta-ol-23,24-bisnor-5-en-22-(propanoic acid) amide], the IC50 is > 100 µM. On the same count and under the same terms, the same measure for `C[C@H](C(=O)NCCCCCCCC(=O)O)[C@H]1CC[C@H]2C3CC=C4C[C@@H](O)CC[C@]4(C)[C@H]3CC[C@]12C` (stereo partly drawn) [3beta-ol-23,24-bisnor-5-en-22-(octanoic acid) amide]: > 100 µM. On the same count and under the same terms, the same measure for `C[C@H](C(=O)NCCC[C@H](NC(=O)OCc1ccccc1)C(=O)O)[C@H]1CC[C@H]2C3CC=C4C[C@@H](O)CC[C@]4(C)[C@H]3CC[C@]12C` (stereo partly drawn) [3beta-ol-23,24-bisnor-5-en-22-(5-(2-Z-amino)pentanoic acid) amide]: > 100 µM.

For `CC(=O)O[C@H]1CC[C@@]2(C)C(=CCC3[C@@H]4CC[C@H]([C@H](C)C(=O)NCCCC[C@H](NC(=O)OCc5ccccc5)C(=O)OCc5ccccc5)[C@@]4(C)CC[C@@H]32)C1` (stereo partly drawn) [3beta-acetoxy-23,24-bisnor-5-en-22-(6-(2-Z-amino)benzyl hexanoate) amide], the 50% inhibitory concentration (IC50) was > 100 µM. On the same count and under the same terms, to `C[C@H](C(=O)NCCCC[C@H](NC(=O)OCc1ccccc1)C(=O)O)[C@H]1CC[C@H]2C3CC=C4C[C@@H](O)CC[C@]4(C)[C@H]3CC[C@]12C` (some centres not stated) [3beat-ol-23,24-bisnor-5-en-22-(6-(2-Z-amino)hexanoic acid) amide] belongs > 100 µM.

The next test addresses sterol 24-C-methyltransferase (Trypanosoma brucei brucei). The experiment in a line: Inhibition of Trypanosoma brucei brucei recombinant 24-SMT.
Regarding `COC(=O)CCCCCCCNC[C@@H](C)[C@H]1CC[C@H]2C3CC=C4C[C@@H](OC(C)=O)CC[C@]4(C)[C@H]3CC[C@]12C` (stereo partly drawn) [3beta-acetoxy-23,24-bisnor-chol-5-en-22-(methyl octanoate) amine], the IC50 is > 100 µM.

For the origin of these results see BindingDB's records for doi:10.1021/jm060290f (Cardiff University, 2006).
